# Data published in patent US8772348B2, “Materials and methods for pest control” (priority 2009, dated 2014).
# Where two headings read alike, the source gives them in different places.
# What was measured:
# Musca domestica [1] = settings: M. domestica; formulation on plywood panels at 1.67 mg cm^−2; mortality 24 h after
# Procedure: (§1) Briefly, each fly strain is divided into eight sets: three sets as the experiment, four sets as the positive control, and one set as the negative control. Flies are assayed on unpainted plywood panel boards that have been previously exposed to natural summer weather conditions for at least 10 days. […] The positive control set is treated with permethrin, geranyl acetone, rosalva or citronellol. The negative control set is treated with water. The formulation is applied at a uniform rate of 7.5 ml per 225 cm^2, sufficient to cover the entire panel without dripping. Subsequently, the treated panel boards are dried for about an hour.
# (§2) In each set, 20 adult flies are placed onto the panel boards. Flies are secured with wooden embroidery hoops, covered with a coarse mesh screen cloth previously sprayed with the respective formulation. After 4 hours, flies are transferred into a clean jar. The mortality rate is measured 24 hours after the transfer, and is determined using the same procedures as are illustrated in Example 2.
# (§3) Plywood panels (225 cm^2) were treated with chemicals at a rate of 1.67 mgcm^−2. Panels were treated on day 0 and held until exposure on post-treatment day. Mosquitoes were exposed to chemicals for 2 h, and mortality rate was assessed 24 h after initial exposure. Control contained formulation ingredients without semiochemicals.
# Stomoxys calcitrans = settings: S. calcitrans; formulation on plywood panels at 1.67 mg cm^−2; mortality 24 h after
# Procedure: as §1, §2, §3
# Musca domestica [2] = settings: formulation on plywood panels, 3.33 mg cm^−2 (footnote 1.67), 2 h exposure, mortality 24 h after
# Procedure: Briefly, after Musca domestica is exposed to formulations at concentration of 3.33 mg cm^−2 for 2 hours, each set is transferred into a separate glass jar, and held for another 24 hours.
# as §3, with “of 1.67 mg cm^−2. Panels were” for “of 1.67 mgcm^−2. Panels were”, “0 and was held until” for “0 and held until”
# Aedes aegypti [3] = settings: On camouflage military fabric
# Procedure: (§4) The mortality rate is measured after a 2-hour, 4-hour and 24-hour exposure period. Ataxic mosquitoes are considered dead.
# (§5) The ability of Ae. aegypti to recover from insecticidal exposure is also investigated. After a 2-hour exposure, each set of Ae. aegypti is transferred into a separate jar. The mortality rate is measured at two time intervals: first, immediately at the transfer (2 hours after the initial exposure), and second, 22 hours after the transfer (24 hours after the initial exposure).
# The mortality rate and the LC values are determined using the same procedures as is illustrated in Example 2.
# [4] = system: Susceptible Musca domestica; assay: Glass jar contact bioassay, susceptible (laboratory) house flies
# Procedure: Briefly, adult house flies, Musca domestica, are obtained from strains that have been reared in the laboratory of the Entomology and Nematology Department, University of Florida. […] The positive control is exposed to serial dilutions of permethrin. The negative control is not exposed to any chemical compound. The mortality rate is measured after 2-hour, 4-hour, and 24-hour periods. Ataxic flies are considered dead.
# as §5, with “ability of house flies to recover” for “ability of Ae. aegypti to recover”, “set of flies is transferred” for “set of Ae. aegypti is transferred”, “a separate glass jar. The” for “a separate jar. The”
# The mortality rate is analyzed using the PROBIT model. The data is adjusted based on the mortality rate in the control set using the Abbott's transformation, and the percent mortality is further analyzed based on ANOVA measurement. The experiment is repeated at least three times. The data is discarded if the mortality rate in the control set exceeds 10%. The LC50 and LC90 values are further determined using the SAS (Cary, N.C., USA) statistical software. For each chemical compound, at least 1280 flies are examined.
# Aedes aegypti [5] = settings: formulation on plywood panels at 1.67 mg cm^−2, 2 h exposure, mortality 24 h after initial exposure
# Procedure: Briefly, after mosquitoes are assayed on unpainted plywood panel boards with formulation at a concentration of 1.67 mg cm^−2 for 2 hours, they are transferred into a separate glass jar, and held for another 24 hours. The mortality rate is measured daily for a continuous 4 days (Day 1 starts at 24 hours after the transfer), as is determined using the same procedures as are illustrated in Example 2.
# as §3, with “of 1.67 mg cm^−2. Panels were” for “of 1.67 mgcm^−2. Panels were”, “0 and was held until” for “0 and held until”
# Aedes aegypti [6] = settings: On filter paper
# Procedure: Briefly, yellow fever mosquito, Ae. aegypti were obtained from strains that have been cultured in the laboratory of the Entomology and Nematology Department, University of Florida.
# as §4, §5
# [7] = system: Field-collected Musca domestica
# Procedure: Briefly, one Musca domestica strain is collected from the University of Florida dairy unit in Alachua County, Florida, U.S.A. (“the Alachua strain”). The other Musca domestica strain is collected from a dairy farm in Gilchrist County, Florida, U.S.A. (“the Gilchrist strain”). Both strains are colonized adults, and are subsequently reared at 27° C. in the laboratory of the Entomology and Nematology Department, University of Florida.
# The positive control is exposed to serial dilutions of permethrin. The negative control is not exposed to any chemical compound. 1 mL of insecticide was dissolved in acetone (concentrations between 0.5 and 20 mg mL^−1) in a 60 mL glass jar having a 67.86 cm^2 inside surface area (Wheaton, Millville, N.J.). Jars were allowed to dry for 1 h prior to fly introduction. Flies were held in jars for 2, 4 and 24 h, and fly mortality rate was scored at that time. Sugar water (10%) was provided in all assays, unless stated otherwise. The mortality rate is measured after a 2-hour, 4-hour, and 24-hour period. Ataxic flies are considered dead. The mortality rate and the LC values are determined using the same procedures as is illustrated in Example 2.
# [8] = 2 h exposure then transferred, mortality 24 h after initial exposure
# [9] = 2 h constant exposure, glass jar
# [10] = 2 h exposure, transferred to clean jars, mortality 24 h after initial exposure
# [11] = 4 h constant exposure, glass jar
# [12] = 24 h constant exposure, glass jar
# [13] = Alachua strain, 2 h constant exposure
# [14] = Alachua strain, 4 h constant exposure
# [15] = Alachua strain, 24 h constant exposure
# [16] = Gilchrist strain, 2 h constant exposure
# [17] = Gilchrist strain, 4 h constant exposure
# [18] = Gilchrist strain, 24 h constant exposure
substance,measurement,setting,value
permethrin [reference compound],% mortality,Musca domestica [1],88.40a %
same,% mortality,Stomoxys calcitrans,100.00a %
same,% mortality on various days following treatment,Musca domestica [2]; day 1,100.00a %
same,% mortality on various days following treatment,Musca domestica [2]; day 2,90.50a %
same,% mortality on various days following treatment,Musca domestica [2]; day 3,97.50a %
same,% mortality on various days following treatment,Musca domestica [2]; day 5,97.50a %
same,% mortality on various days following treatment,Musca domestica [2]; day 7,97.50a %
same,% mortality on various days following treatment,Musca domestica [2]; day 14,67.00a %
same,LC50,Aedes aegypti [3]; 2 h constant exposure,0.012 μg cm^−2
same,LC50,Aedes aegypti [3]; [8],0.45 μg cm^−2
same,LC50,Aedes aegypti [3]; 4 h constant exposure,0.0009 μg cm^−2
same,LC50,Aedes aegypti [3]; 24 hr constant exposure,0.00031 μg cm^−2
same,LC50,[4]; [9],0.18 μg cm^−2
same,LC90,[4]; [9],1.20 μg cm^−2
same,LC50,[4]; [10],0.58 μg cm^−2
same,LC90,[4]; [10],3.56 μg cm^−2
same,decline in toxicity after a 24-hour holding period subsequent to an initial 2-hour exposure,[4]; 2 h transferred vs 2 h constant,~3 fold
same,LC50,[4]; [11],0.10 μg cm^−2
same,LC90,[4]; [11],0.95 μg cm^−2
same,LC50,[4]; [12],0.03 μg cm^−2
same,LC90,[4]; [12],0.41 μg cm^−2
same,% mortality on various days following treatment,Aedes aegypti [5]; day 1,100.00a %
same,% mortality on various days following treatment,Aedes aegypti [5]; day 2,99.00a %
same,% mortality on various days following treatment,Aedes aegypti [5]; day 3,98.0a %
same,% mortality on various days following treatment,Aedes aegypti [5]; day 4,96.50a %
same,LC50,Aedes aegypti [6]; 2 h constant exposure,0.02 μg cm^−2
same,LC50,Aedes aegypti [6]; [8],0.04 μg cm^−2
same,LC50,Aedes aegypti [6]; 4 h constant exposure,0.0018 μg cm^−2
same,LC50,Aedes aegypti [6]; 24 hr constant exposure,0.00045 μg cm^−2
same,LC50,[7]; [13],4.61 μg cm^−2
same,LC90,[7]; [13],14.86 μg cm^−2
same,LC50,[7]; [14],4.10 μg cm^−2
same,LC90,[7]; [14],15.85 μg cm^−2
same,LC50,[7]; [15],0.99 μg cm^−2
same,LC90,[7]; [15],3.78 μg cm^−2
same,LC50,[7]; [16],0.41 μg cm^−2
same,LC90,[7]; [16],1.82 μg cm^−2
same,LC50,[7]; [17],0.39 μg cm^−2
same,LC90,[7]; [17],1.51 μg cm^−2
same,LC50,[7]; [18],0.16 μg cm^−2
same,LC90,[7]; [18],0.85 μg cm^−2
